Measurements reported in patent US20240246969A1, “HETEROCYCLIC DERIVATIVES AS CAMKK2 INHIBITORS” (Bristol-Myers Squibb Company, priority 2021, published 2024).

Target: CaMKK2 (Homo sapiens, UniProt Q96RR4)
Test: CaMKK2 binding assay (LanthaScreen TR-FRET)
Conditions: not given
Procedure: The ability of test compounds to bind and inhibit the activity of CaMKK2 were determined using a binding assay using LanthaScreent (Thermofisher) detection reagents in a 384-well plate format using the following assay buffer: 50 mM HEPES (pH7.5), 10 mM MgCl2, 1 mM EGTA, and 0.01% Brij-35.
A 10-point serial dilution of inhibitor compound in 0.5% DMSO was added to each well of the plate. The final assay volume in well was 15 uL. […] A ratio was calculated from the 2 readouts and fitted to a 4-parameter fit to determine the binding IC50.

CaMKK2, sequence (Q96RR4 whole entry): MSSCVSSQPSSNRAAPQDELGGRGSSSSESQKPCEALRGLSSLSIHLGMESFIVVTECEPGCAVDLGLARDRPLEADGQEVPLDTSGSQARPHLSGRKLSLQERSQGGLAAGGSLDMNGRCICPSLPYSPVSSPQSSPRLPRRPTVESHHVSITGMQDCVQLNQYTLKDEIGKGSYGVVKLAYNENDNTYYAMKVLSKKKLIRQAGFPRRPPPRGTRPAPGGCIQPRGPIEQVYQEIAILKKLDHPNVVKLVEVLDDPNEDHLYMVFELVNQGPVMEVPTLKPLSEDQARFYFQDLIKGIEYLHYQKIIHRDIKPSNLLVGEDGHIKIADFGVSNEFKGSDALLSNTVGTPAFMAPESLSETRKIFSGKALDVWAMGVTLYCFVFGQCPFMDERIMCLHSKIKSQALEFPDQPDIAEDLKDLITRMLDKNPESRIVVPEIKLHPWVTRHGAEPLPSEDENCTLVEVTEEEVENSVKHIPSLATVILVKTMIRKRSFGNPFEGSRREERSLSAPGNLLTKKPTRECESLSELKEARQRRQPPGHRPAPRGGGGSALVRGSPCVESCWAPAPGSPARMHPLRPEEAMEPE

| IC50 | Compound |
| --- | --- |
| < 100 nM | O=C(O)c1ccc(-c2ccnc3cc(C4CC4)nn23)cc1C1CCCC1 [Example 2.1, 2-Cyclopentyl-4-(2-cyclopropylpyrazolo[1,5-a]pyrimidin-7-yl)benzoic Acid] |
| < 100 nM | COc1cc2nccc(-c3ccc(C(=O)O)c(C4CCCC4)c3)n2n1 [Example 2.3, 2-Cyclopentyl-4-(2-methoxypyrazolo[1,5-a]pyrimidin-7-yl)benzoic Acid] |
| < 100 nM | CCOc1cc2nccc(-c3ccc(C(=O)O)c(C4CCCC4)c3)n2n1 [Example 2.4, 2-Cyclopentyl-4-(2-ethoxypyrazolo[1,5-a]pyrimidin-7-yl)benzoic Acid] |
| < 100 nM | O=C(O)c1ccc(-c2ccnc3cc(-c4ccc(F)cc4)nn23)cc1C1CCCC1 [Example 2.5, 2-Cyclopentyl-4-(2-(4-fluorophenyl)pyrazolo[1,5-a]pyrimidin-7-yl)benzoic Acid] |
| < 100 nM | O=C(O)c1ccc(-c2ccnc3cc(-c4cccc(F)c4)nn23)cc1C1CCCC1 [Example 2.7, 2-Cyclopentyl-4-(2-(3-fluorophenyl)pyrazolo[1,5-a]pyrimidin-7-yl)benzoic Acid] |
| < 100 nM | COc1ccc(-c2cc3nccc(-c4ccc(C(=O)O)c(C5CCCC5)c4)n3n2)cc1 [Example 2.8, 2-Cyclopentyl-4-(2-(4-methoxyphenyl)pyrazolo[1,5-a]pyrimidin-7-yl)benzoic Acid] |
| < 100 nM | COc1cccc(-c2cc3nccc(-c4ccc(C(=O)O)c(C5CCCC5)c4)n3n2)c1 [Example 2.9, 2-Cyclopentyl-4-(2-(3-methoxyphenyl)pyrazolo[1,5-a]pyrimidin-7-yl)benzoic Acid] |
| < 100 nM | Cn1cc(-c2cc3nccc(-c4ccc(C(=O)O)c(C5CCCC5)c4)n3n2)cn1 [Example 2.12, 2-Cyclopentyl-4-(2-(1-methyl-H-pyrazol-4-yl)pyrazolo[1,5-a]pyrimidin-7-yl)benzoic Acid] |
| < 100 nM | COc1cc(-c2ccnc3cc(-c4ccc(F)cc4)nn23)ccc1C(=O)N[C@H](CO)c1ccccc1 [Example 2.13, (S)-4-(2-(4-Fluorophenyl)pyrazolo[1,5-a]pyrimidin-7-yl)-N-(2-hydroxy-1-phenylethyl)-2-methoxybenzamide] |
| < 100 nM | Cc1cc(-n2cc3ncc(F)c(-c4ccc(C(=O)O)c(C5CCCC5)c4)c3n2)cc(C(F)(F)F)c1 [Example 3.8, 2-Cyclopentyl-4-(6-fluoro-2-(3-methyl-5-(trifluoromethyl)phenyl)-2H-pyrazolo[4,3-b]pyridin-7-yl)benzoic Acid] |
| < 100 nM | O=C(O)c1ccc(-c2c(F)cnc3cn(-c4cc(F)cc(Cl)c4)nc23)cc1C1CCCC1 [Example 3.10, 4-(2-(3-Chloro-5-fluorophenyl)-6-fluoro-2H-pyrazolo[4,3-b]pyridin-7-yl)-2-cyclopentylbenzoic Acid] |
| < 100 nM | Cc1cc(F)cc(-n2cc3ncc(F)c(-c4ccc(C(=O)O)c(C5CCCC5)c4)c3n2)c1 [Example 3.11, 2-Cyclopentyl-4-(6-fluoro-2-(3-fluoro-5-methylphenyl)-2H-pyrazolo[4,3-b]pyridin-7-yl)benzoic Acid] |
| < 100 nM | COc1cc(-n2cc3ncc(F)c(-c4ccc(C(=O)O)c(C5CCCC5)c4)c3n2)cc(C(F)(F)F)c1 [Example 3.13, 2-Cyclopentyl-4-(6-fluoro-2-(3-methoxy-5-(trifluoromethyl)phenyl)-2H-pyrazolo[4,3-b]pyridin-7-yl)benzoic Acid] |
| < 100 nM | O=C(O)c1ccc(-c2c(F)cnc3cn(-c4cc(F)cc(C(F)(F)F)c4)nc23)cc1C1CCCC1 [Example 3.14, 2-Cyclopentyl-4-(6-fluoro-2-(3-fluoro-5-(trifluoromethyl)phenyl)-2H-pyrazolo[4,3-b]pyridin-7-yl)benzoic Acid] |
| < 100 nM | O=C(O)c1ccc(-c2c(F)cnc3cn(-c4cc(Cl)cc(C(F)(F)F)c4)nc23)cc1C1CCCC1 [Example 3.15, 4-(2-(3-Chloro-5-(trifluoromethyl)phenyl)-6-fluoro-2H-pyrazolo[4,3-b]pyridin-7-yl)-2-cyclopentylbenzoic] |
| < 100 nM | COc1cc(-c2ccnc3cn(-c4ccc(F)cc4)nc23)ccc1C(=O)N[C@H](CO)c1ccccc1 [Example 3.19, (S)-4-(2-(4-fluorophenyl)-2H-pyrazolo[4,3-b]pyridin-7-yl)-N-(2-hydroxy-1-phenylethyl)-2-methoxybenzamide] |
| < 100 nM | N#CNC(=O)c1ccc(-c2ccnc3cn(-c4ccc(F)cc4)nc23)cc1C1CCCC1 [Example 3.20, N-Cyano-2-cyclopentyl-4-(2-(4-fluorophenyl)-2H-pyrazolo[4,3-b]pyridin-7-yl)benzamide] |
| < 100 nM | O=C(O)c1ccc(-c2c(F)cnc3cn(-c4ccc(F)cc4)nc23)cc1NC1CC1 [Example 3.21, 2-(Cyclopropylamino)-4-(6-fluoro-2-(4-fluorophenyl)-2H-pyrazolo[4,3-b]pyridin-7-yl)benzoic Acid] |
| < 100 nM | Cc1cccc(-c2cc3c(-c4ccc(C(=O)O)c(C5CCCC5)c4)ccnn3c2)c1 [Example 4.2, 2-Cyclopentyl-4-[6-(m-tolyl)pyrrolo[1,2-b]pyridazin-4-yl]benzoic Acid] |
| < 100 nM | O=C(O)c1ccc(-c2ccnn3cc(-c4ccccc4F)cc23)cc1C1CCCC1 [Example 4.3, 2-Cyclopentyl-4-[6-(2-fluorophenyl)pyrrolo[1,2-b]pyridazin-4-yl]benzoic Acid] |

More lines, now with the values behind:

| Compound | IC50 |
| --- | --- |
| Cc1cc(C)cc(-c2cnc3ccn(-c4ccc(C(=O)O)c(C5CCNC5)c4)c3n2)c1 (single isomer, unassigned) [Example 26] | < 100 nM |
| Cc1cc(C)cc(-c2cnc3ccn(-c4ccc(C(=O)O)c(C5CCCNC5)c4)c3n2)c1 (single isomer, unassigned) [Example 28] | < 100 nM |
| Cc1cccc(-c2cnc3ccn(-c4ccc(C(=O)O)c(C5CCCC5)c4)c3n2)c1 [Example 4, 2-Cyclopentyl-4-(3-(m-tolyl)-5H-pyrrolo[2,3-b]pyrazin-5-yl)benzoic Acid] | < 100 nM |
| Cn1ncc2cc(-c3cnc4ccn(-c5ccc(C(=O)O)c(NCC6CC6)c5)c4n3)c(F)cc21 [Example 8, 2-((Cyclopropylmethyl)amino)-4-(3-(6-fluoro-1-methyl-1H-indazol-5-yl)-5H-pyrrolo[2,3-b]pyrazin-5-yl)benzoic Acid] | < 100 nM |
| O=C(O)c1ccc(-n2ccc3ncc(-c4ccc(F)cc4F)nc32)cc1NC1CC1 [Example 10, 2-(Cyclopropylamino)-4-(3-(2,4-difluorophenyl)-5H-pyrrolo[2,3-b]pyrazin-5-yl)benzoic Acid] | < 100 nM |
| O=C(O)c1ccc(-n2ccc3ncc(-c4ccc(F)cc4)nc32)cc1NCC1CC1 [Example 11, 2-((Cyclopropylmethyl)amino)-4-(3-(4-fluorophenyl)-5H-pyrrolo[2,3-b]pyrazin-5-yl)benzoic Acid] | < 100 nM |
| CCNc1cc(-n2ccc3ncc(-c4ccc5c(cnn5C)c4)nc32)ccc1C(=O)O [Example 14, 2-(Ethylamino)-4-(3-(1-methyl-1H-indazol-5-yl)-5H-pyrrolo[2,3-b]pyrazin-5-yl)benzoic Acid] | < 100 nM |
| O=C(O)c1ccc(-n2ccc3ncc(-c4ccc(F)cc4)nc32)cc1NC1CC1 [Example 15, 2-(Cyclopropylamino)-4-(3-(4-fluorophenyl)-5H-pyrrolo[2,3-b]pyrazin-5-yl)benzoic Acid] | < 100 nM |

Same assay, conditions: binding IC50, 1 nM CaMKK2, 5 nM Kinase tracer 236, 20 minutes

| Compound | IC50 |
| --- | --- |
| 2-((azetidin-3-ylmethyl)amino)-4-(3-(3,5-dimethylphenyl)-5H-pyrrolo[2,3-b]pyrazin-5-yl)benzoic Acid [Example 30] | < 100 nM |
